Type in all cases: cell-based, Human
Data set [1] concerns THBS1. Kind of data set: THBS1 expression after TGF-beta pathway activation in sensitive cell lines. The note with it: two sensitive cell lines, 5 ng/ml TGFβ1 24 hours after seeding, harvested 24 hours later, FIGS. 10D and 10E. As for the experimental part:
(§1) Dimethyl sulfoxide (DMSO) was purchased from Sigma-Aldrich and was used as a drug control. APR-246 and TGFβ1 protein were purchased from MedChemExpress (MCE). APR-246 was used by diluting 25 mg to a final concentration of 10 mM, and the cells were treated for 4 to 5 days when checking the cell viability and for 24 hours when performing a Western blot experiment. In addition, TGFβ1 at a concentration of 10 μg/ml was a TGF-beta pathway activator, and drug-sensitive cell lines were seeded and treated with 5 ng/ml of TGFβ1 24 hours later, and the cells were harvested 24 hours later.
(§2) Total RNA was extracted from cells using a total RNA extraction kit from Intron Biotechnology. Genomic DNA was removed by treatment with RNase-free DNase I. Complementary DNA (cDNA) was synthesized using a DiaStar RT kit of Solgent. In addition, RT-PCR was performed using Veriti 96-well Thermal Cycler of Applied Biosystems, and real-time polymerase chain reaction (qRT-PCR) was performed using a QuantStudio 5 real-time PCR system, an SYBR master mix (Genet Bio), and primers.

Data set [2] deals with TGFβ1 mRNA. Kind of data set: TGFβ1 mRNA expression after TGF-beta pathway activation in sensitive cell lines. The settings on record: two sensitive cell lines, 5 ng/ml TGFβ1 24 hours after seeding, harvested 24 hours later, FIGS. 10D and 10E. As for the experimental part:
as §1, §2

The subject of data set [3] is HCC827. Kind of data set: Cell viability by APR-246 treatment concentration (IncuCyte, crystal violet). The note with it: HCC827 p53-mutant lung cancer cells, 4 to 5 days, FIG. 7B. How it is done:
(§3) Human lung cancer cell lines NCI-H1793, NCI-H2009, and HCC827 were purchased from the Korea Cell Line Bank (KCLB), and NCI-H1792 was purchased from the American Type Culture Collection (ATCC). NCI-H1793 and HCC827 were cultured in a RPMI 1640 medium supplemented with 10% fetal bovine serum (FBS) and antibiotics (100 U/ml penicillin, 100 μg/ml of streptomycin, and 0.25 μg/ml of Fungizone). NCI-H1792 and NCI-H2009 were cultured with the same supplements in a DMEM medium. All the cell lines were cultured at 37° C. in an incubator containing 5% carbon dioxide.
as §1
(§4) Cells were seeded in a 96-well plate at 3 to 5×10^3 cells per well. A drug was then treated within 24 hours after seeding. After drug treatment, cell growth was recorded every 3 hours using IncuCyte ZOOM for 4 to 5 days. Cell viability was analyzed using IncuCyte ZOOM 2016A software. After 4 to 5 days, the cells were stained with 1% crystal violet for 30 minutes at room temperature and washed with distilled water to confirm the amount of viable cells.
(§5) The present inventors confirmed the cell viability according to the APR-246 drug treatment concentration for lung cancer cell lines NCI-H1793, NCI-H1792, HCC827, and NCI-H2009, which were known to have p53 mutations. At this time, APR-246 drug-sensitive cell lines and resistant cell lines were distinguished based on z-score normalized IC50 values.

In data set [4] the test system is NCI-H1792. The description is as above. The settings on record: NCI-H1792 p53-mutant lung cancer cells, 4 to 5 days, FIG. 7A. How it is done:
as §3, §1, §4, §5

For data set [5], the system named is NCI-H1793. Described as above. The note with it: NCI-H1793 p53-mutant lung cancer cells, 4 to 5 days, FIG. 7A. How it is done:
as §3, §1, §4, §5

The subject of data set [6] is NCI-H2009. The description is as above. The note with it: NCI-H2009 p53-mutant lung cancer cells, 4 to 5 days, FIG. 7B. How it is done: as §3, §1, §4, §5
The test system of data set [7] is THBS1 mRNA. Kind of data set: THBS1 knockdown by shRNA, mRNA level by qRT-PCR. The note with it: lentiviral shRNA, FIG. 8A. As for the experimental part:
HEK 293T cells were used to transfect shRNA targeting THBS1 and an overexpression vector. In addition to shRNA (shTHBS1; […]; SEQ ID NO: 1) and an overexpression vector (pDNA (VB220725-1808zjh); […]. Infected cells were selected using 1 μg/ml of puromycin for at least one week.
as §2
At this time, when NCI-H1792 and NCI-H1793 cell lines, lung cancer cell lines with drug resistance to APR-246, were treated with THBS1-targeting shRNA (SEQ ID NO: 1; […]) as a THBS1 inhibitor, the THBS1 mRNA expression level was reduced (FIG. 8A). In addition, when THBS1 was overexpressed in NCI-H2009 and HCC827, lung cancer cell lines with high drug responsiveness to APR-246, it was confirmed that the THBS1 mRNA expression level was increased (FIG. 8B).
(In general: Real-time PCR tracks product formation cycle by cycle.)

As to “drug that activated the TGF-beta signaling pathway: TGFβ1 protein from MedChemExpress, used as TGF-beta pathway activator at 5 ng/ml”, in data set [1], the “expression level of THBS1” value is on record as “increased”. The “mRNA expression level of TGFβ1” value in data set [2] is recorded as “increased”.

Turning to `COCC1(CO)C(=O)C2CCN1CC2` (centres unmarked) [APR-246], the “drug response (cell viability)” value was “clear response” in data set [3], “hardly responded” in data set [4], “hardly responded” in data set [5] and “clear response” in data set [6].

For the compound “THBS1-targeting shRNA: short hairpin RNA targeting THBS1, GTAGGTTATGATGAGTTTAAT (SEQ ID NO: 1), delivered by lentivirus (guide GUAGGUUAUGAUGAGUUUAAU)”, the “THBS1 mRNA expression level” value in data set [7] (NCI-H1792 cells) and in data set [7] (NCI-H1793 cells) was “reduced” each time.

Values taken from patent US20250302863A1, “USE OF THBS1 INHIBITOR FOR OVERCOMING DRUG RESISTANCE IN CANCER” (KOREA ADVANCED INSTITUTE OF SCIENCE AND TECHNOLOGY, priority 2022, published 2025).
